Source: ChEMBL document CHEMBL5543058, “The application of PROTAC in HDAC” (Eur J Med Chem, 2023)
One block for each compound: values may come before it.

What was measured:
A549 [1] = test: Antiproliferative activity against human A549 cells assessed as inhibition of cell growth measured after 48 hrs by SRB assay; format: functional
[2] = molecular target: von Hippel-Lindau disease tumor suppressor/Histone deacetylase 1 (Homo sapiens, UniProt Q13547+P40337); test: Protac activity at VHL/LSD1/HDAC1/CoREST complex interaction in human HCT-116 cells assessed as HDAC1 degradation by fluorescence based assay; format: cell-based
[3] = molecular target: von Hippel-Lindau disease tumor suppressor/Histone deacetylase 3 (Homo sapiens, UniProt O15379+P40337); test: Protac activity at VHL/LSD1/HDAC3/CoREST complex interaction in human HCT-116 cells assessed as induction of HDAC3 degradation by fluorescence based assay; format: cell-based
[4] = molecular target: von Hippel-Lindau disease tumor suppressor/Histone deacetylase 2 (Homo sapiens, UniProt Q92769+P40337); test: Protac activity at VHL/LSD1/HDAC2/CoREST complex interaction in human HCT-116 cells assessed as induction of HDAC2 degradation by fluorescence based assay; format: cell-based
Histone deacetylase 8 = molecular target: T1, Histone deacetylase 8 (Homo sapiens, UniProt Q9BY41); test: Inhibition of HDAC8 (unknown origin) using acetyl-Gly-Ala-(N-acetyl-Lys)-amino-4-methylcoumarin as substrate measured after 30 mins by fluorescence assay
T1 sequence (Q9BY41 whole entry): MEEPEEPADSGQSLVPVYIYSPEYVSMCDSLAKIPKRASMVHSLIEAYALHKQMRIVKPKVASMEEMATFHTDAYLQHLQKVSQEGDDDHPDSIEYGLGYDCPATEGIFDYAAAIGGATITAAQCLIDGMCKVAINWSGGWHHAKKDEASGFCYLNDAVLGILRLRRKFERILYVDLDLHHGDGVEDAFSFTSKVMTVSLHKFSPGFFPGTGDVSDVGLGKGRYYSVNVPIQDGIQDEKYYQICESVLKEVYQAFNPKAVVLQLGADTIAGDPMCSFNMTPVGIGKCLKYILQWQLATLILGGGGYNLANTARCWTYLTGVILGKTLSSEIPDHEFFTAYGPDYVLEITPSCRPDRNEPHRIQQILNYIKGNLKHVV

Jurkat = test: Growth inhibition of human Jurkat cells; format: functional
[5] = molecular target: Protein cereblon/Histone deacetylase 8 (Homo sapiens, UniProt Q9BY41+Q96SW2); test: PROTAC activity at HDAC8/CRBN in human A549 cells assessed as degradation of HDAC8 by Western blot analysis; format: cell-based
A549 [6] = test: Growth inhibition of human A549 cells incubated for 72 hrs by MTT assay; format: functional
[7] = molecular target: T2, Histone deacetylase 8 (Homo sapiens) (UniProt Q9BY41); test: Induction of HDAC8 degradation in human A549 cells assessed as maximum degradation at 0.1 to 160 uM measured after 10 hrs by Western blot analysis relative to control; format: cell-based; conditions: dose 0.1-160 µM
T2 sequence (whole entry): T1 sequence (Q9BY41 whole entry)

Sequence of von Hippel-Lindau disease tumor suppressor/Histone deacetylase 1 (Q13547 whole entry): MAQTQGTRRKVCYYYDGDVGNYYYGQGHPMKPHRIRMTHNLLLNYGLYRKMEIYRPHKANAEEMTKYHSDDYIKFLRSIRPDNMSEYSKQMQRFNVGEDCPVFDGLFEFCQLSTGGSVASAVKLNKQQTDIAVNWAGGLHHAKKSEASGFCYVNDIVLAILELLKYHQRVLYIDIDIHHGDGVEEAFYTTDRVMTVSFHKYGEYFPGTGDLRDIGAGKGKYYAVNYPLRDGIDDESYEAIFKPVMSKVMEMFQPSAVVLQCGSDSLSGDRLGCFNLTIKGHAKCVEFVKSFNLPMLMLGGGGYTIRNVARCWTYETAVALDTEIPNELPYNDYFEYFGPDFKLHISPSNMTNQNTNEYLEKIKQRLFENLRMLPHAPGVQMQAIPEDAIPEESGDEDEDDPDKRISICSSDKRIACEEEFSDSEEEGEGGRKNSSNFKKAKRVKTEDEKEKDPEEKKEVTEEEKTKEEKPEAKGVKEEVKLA
Sequence of von Hippel-Lindau disease tumor suppressor/Histone deacetylase 1 (P40337 whole entry): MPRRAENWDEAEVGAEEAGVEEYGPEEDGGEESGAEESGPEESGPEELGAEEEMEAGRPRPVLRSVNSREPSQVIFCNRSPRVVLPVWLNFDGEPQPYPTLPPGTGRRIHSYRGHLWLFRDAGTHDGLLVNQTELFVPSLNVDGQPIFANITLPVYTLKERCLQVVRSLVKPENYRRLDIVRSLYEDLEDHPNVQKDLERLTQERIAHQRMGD
Sequence of von Hippel-Lindau disease tumor suppressor/Histone deacetylase 2 (Q92769 whole entry): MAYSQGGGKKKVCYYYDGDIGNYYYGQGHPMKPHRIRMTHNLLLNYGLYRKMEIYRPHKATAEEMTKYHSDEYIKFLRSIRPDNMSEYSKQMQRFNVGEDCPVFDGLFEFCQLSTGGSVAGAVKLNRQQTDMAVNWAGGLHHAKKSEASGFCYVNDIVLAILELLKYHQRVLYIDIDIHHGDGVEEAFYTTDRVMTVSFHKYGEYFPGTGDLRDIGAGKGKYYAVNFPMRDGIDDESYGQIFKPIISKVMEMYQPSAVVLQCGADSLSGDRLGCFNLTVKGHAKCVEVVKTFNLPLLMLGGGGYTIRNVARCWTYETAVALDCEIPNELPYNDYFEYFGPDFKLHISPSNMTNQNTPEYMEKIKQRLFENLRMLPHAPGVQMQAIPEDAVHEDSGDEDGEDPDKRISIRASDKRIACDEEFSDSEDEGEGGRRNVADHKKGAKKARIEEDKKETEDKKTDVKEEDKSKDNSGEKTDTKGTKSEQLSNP
Sequence of von Hippel-Lindau disease tumor suppressor/Histone deacetylase 2 (P40337 whole entry): as the sequence (P40337 whole entry) above
Sequence of von Hippel-Lindau disease tumor suppressor/Histone deacetylase 3 (O15379 whole entry): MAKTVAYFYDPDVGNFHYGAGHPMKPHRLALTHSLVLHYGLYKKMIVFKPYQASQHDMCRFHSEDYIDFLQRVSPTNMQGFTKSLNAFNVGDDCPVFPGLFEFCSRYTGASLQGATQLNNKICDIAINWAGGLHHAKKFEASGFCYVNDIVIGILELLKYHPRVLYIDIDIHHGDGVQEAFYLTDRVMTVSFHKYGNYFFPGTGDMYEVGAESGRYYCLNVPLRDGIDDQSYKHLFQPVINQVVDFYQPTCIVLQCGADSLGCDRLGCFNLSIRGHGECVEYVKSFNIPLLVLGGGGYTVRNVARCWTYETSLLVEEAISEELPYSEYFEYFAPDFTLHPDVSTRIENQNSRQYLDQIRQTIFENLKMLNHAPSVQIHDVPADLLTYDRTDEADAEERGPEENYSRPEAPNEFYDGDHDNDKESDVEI
Sequence of von Hippel-Lindau disease tumor suppressor/Histone deacetylase 3 (P40337 whole entry): as the sequence (P40337 whole entry) above
Sequence of Protein cereblon/Histone deacetylase 8 (Q96SW2 whole entry, one chain of several): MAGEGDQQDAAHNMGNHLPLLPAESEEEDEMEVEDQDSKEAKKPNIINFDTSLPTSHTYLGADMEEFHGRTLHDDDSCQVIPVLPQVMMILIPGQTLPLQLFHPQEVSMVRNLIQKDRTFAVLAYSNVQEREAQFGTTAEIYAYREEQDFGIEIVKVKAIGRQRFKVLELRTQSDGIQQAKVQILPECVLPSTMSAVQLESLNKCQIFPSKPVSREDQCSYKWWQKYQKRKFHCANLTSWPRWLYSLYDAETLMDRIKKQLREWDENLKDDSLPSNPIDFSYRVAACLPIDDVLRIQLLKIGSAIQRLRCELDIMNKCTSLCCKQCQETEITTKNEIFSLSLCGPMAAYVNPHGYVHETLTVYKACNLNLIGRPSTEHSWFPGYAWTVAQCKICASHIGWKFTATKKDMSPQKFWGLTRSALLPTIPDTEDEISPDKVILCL

IC50 (Histone deacetylase 8): 372 nM
GI50 (Jurkat): 780 nM
SMILES: O=C1CCC(N2C(=O)c3cccc(NCCCCCCCCCCCNC(=O)c4cccc(SCc5cn(-c6cccc(C(=O)NO)c6)nn5)c4)c3C2=O)C(=O)N1 (stereo unspecified)

DC50 [5]: 580 nM
GI50 (A549 [6]): 9550 nM
Emax [7]: 95%
SMILES: O=C1CCC(N2C(=O)c3cccc(NCc4cn(CCOCCOc5ccc(Cn6ccc7ccc(C(=O)NO)cc76)cc5)nn4)c3C2=O)C(=O)N1 (stereo unspecified)

The remaining lines, values behind:

SMILES: COc1ccc(Cn2ccc3ccc(C(=O)NO)cc32)cc1
GI50 (A549 [1]): 15800 nM

SMILES: Cc1ncsc1-c1ccc(CNC(=O)[C@@H]2C[C@@H](O)CN2C(=O)[C@@H](NC(=O)CCCCCCCCCCC(=O)Nc2ccc(C(=O)Nc3ccccc3N)cc2)C(C)(C)C)cc1
DC50 [2]: 1000 nM
DC50 [3]: 1000 nM
DC50 [4]: 1000 nM

SMILES: O=C(NO)c1cccc(-n2cc(CSc3ccccc3)nn2)c1
IC50 (Histone deacetylase 8): 53 nM
GI50 (Jurkat): 7090 nM
